Measured values: patent publication US4143133A, “Claudogenic-interceptive nonapeptides” (American Home Products Corporation, priority 1977, dated 1979)

How the values were obtained:
[1] = test system: Mature, female, Sprague-Dawley rats; assay: Anti-gravidity (claudogenic/interceptive) test in mated rats; assay type: in vivo; conditions: rat; for Claudogen (D 1-7), Minimal Effective Dose (100% effect): days 1-7 of pregnancy; for Interceptive (D 7-12), Minimal Effective Dose (100% effect): days 7-12 of pregnancy
[2] = test system: Proestrous female Sprague-Dawley rats; assay: Ovulation induction in Nembutal-treated proestrous rats; assay type: in vivo; conditions: P.O.; rat
[3] = test system: Proestrous female Sprague-Dawley rats; assay: as above; assay type: in vivo, rat; conditions: for Dose giving ovulation inducing activity in 100 percent of the rats: via the jugular vein, Nembutal 50 mg/kg i.p.
Experimental: The ovulation-induction properties of the nonapeptides of this invention was determined as follows:
Proestrous female Sprague-Dawley rats were injected intraperitoneally with a hypnotic dose of Nembutal® (50 mg/kg) at 1:30 P.M. Between 1:40 and 1:50 P.M. the rats received the test material via the jugular vein. The following morning the animals were sacraficed and the fallopian tubes examined for ova under a dissecting microscope. […] Thus, in its ovulation induction, the preferred compound of this invention, [D-2-(cyclohexyl)Gly^6, Pro-NHC2 H5^9 ]LHRH is about 10 times as active as [D-Ala^6, Pro-NHC2 H5^9 ]LH-RH and 30 times as active as LH-RH.

[4] = cited from earlier work
LH secretion = conditions: cited from earlier work

CCNC(=O)[C@@H]1CCCN1C(=O)[C@H](CCCNC(=N)N)NC(=O)[C@H](CC(C)C)NC(=O)[C@H](NC(=O)[C@H](Cc1ccc(O)cc1)NC(=O)[C@H](CO)NC(=O)[C@H](Cc1c[nH]c2ccccc12)NC(=O)[C@H](Cc1c[nH]cn1)NC(=O)[C@@H]1CCC(=O)N1)C1CCCCC1 [Example 5, L-pyroglutamyl-L-histidyl-L-tryptophyl-L-seryl-L-tyrosyl-D-2-(cyclohexyl)glycyl-L-leucyl-L-arginyl-L-prolinethylamide]
Claudogen (D 1-7), Minimal Effective Dose (100% effect) ([1]; P.O.): 200 μ/rat | Interceptive (D 7-12), Minimal Effective Dose (100% effect) ([1]; P.O.): > 1000 μ/rat | Claudogen (D 1-7), Minimal Effective Dose (100% effect) ([1]; S.C.): ~ 1.0 μ/rat | Interceptive (D 7-12), Minimal Effective Dose (100% effect) ([1]; S.C.): ~ 10 μ/rat | Ovulation induction, Minimal Effective Dose (100% effect) [2]: ~ 10 μ/rat | Ovulation induction, Minimal Effective Dose (100% effect) ([3]; I.V., rat): 0.10 μ/rat | Ovulation induction activity relative to LH-RH ([3]; rat): ~30 times | Ovulation induction activity relative to [D-Ala^6, Pro-NHC2 H5^9 ]LH-RH ([3]; rat): about 10 times | Dose giving ovulation inducing activity in 100 percent of the rats [3]: 0.1 μg per rat

CCNC(=O)[C@@H]1CCCN1C(=O)[C@H](CCCNC(=N)N)NC(=O)[C@H](CC(C)C)N(C)C(=O)[C@H](NC(=O)[C@H](Cc1ccc(O)cc1)NC(=O)[C@H](CO)NC(=O)[C@H](Cc1c[nH]c2ccccc12)NC(=O)[C@H](Cc1c[nH]cn1)NC(=O)[C@@H]1CCC(=O)N1)C1CCCCC1 [Example 6]
Claudogen (D 1-7), Minimal Effective Dose (100% effect) ([1]; P.O.): > 1000 μg/rat | Interceptive (D 7-12), Minimal Effective Dose (100% effect) ([1]; P.O.): > 1000 μg/rat | Claudogen (D 1-7), Minimal Effective Dose (100% effect) ([1]; S.C.): 10 μg/rat | Interceptive (D 7-12), Minimal Effective Dose (100% effect) ([1]; S.C.): ~ 10 μg/rat | Ovulation induction, Minimal Effective Dose (100% effect) [2]: > 10 μg/rat | Ovulation induction, Minimal Effective Dose (100% effect) ([3]; i.v., rat): 1.0 μg/rat | Dose giving ovulation inducing activity in 100 percent of the rats [3]: 1.0 μg per rat

D-Ala^6 -LRH
Potency relative to LH-RH ([4]; Monahan et al. 1973): more potent than LH-RH

D-Ala^6, (N^α -Me)Leu^7 LH-RH
Potency in stimulating the secretion of LH, percent of LH-RH's potency (LH secretion; Ling et al. 1975): 560%

LH-RH (QHWSYGLRPG; Gonadoliberin-1; UniProt P01148 24-33, looked up) [native hormone used as comparison in ovulation induction, reference compound]
Dose giving ovulation inducing activity in 100 percent of the rats [3]: about 3 μg per rat

[D-Ala^6, des-Gly-NH2^10, Proethylamide]LH-RH [reference compound]
Potency in stimulating LH secretion relative to D-Ala^6 -LH-RH (LH secretion; Coy et al. 1974): about twice | Dose giving ovulation inducing activity in 100 percent of the rats [3]: about 1 μg per rat

des-Gly^10 -Pro-NHC2 H5 -LH-RH
Activity relative to LH-RH ([4]; Fujino et al. 1972): three to five times as active as LH-RH
